The test system of series [1] is Pseudomonas aeruginosa No. 12. In words: In vivo efficacy against systemic infection. Details: species or system male mice (ddY). The following applies: for ED50: NO.12, in Mus musculus. An outline of the steps: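 Male ddY mice (about 20 g) infected intraperitoneally with a Pseudomonas aeruginosa No. 12 suspension. Compounds in deionized water were given twice, about 5 minutes and 6 hours after infection. Effective dose calculated by the Behrens-Kaerber method.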

The subject of series [2] is Staphylococcus aureus No. 50774. In words: In vivo efficacy against systemic infection. Also noted: species or system male mice (ddY). Particulars: NO.50774, in Mus musculus, 336 h, sc, twice, about 5 minutes and 6 hours after infection, read-out: ED50 (median effective dose). An outline of the steps: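 Male ddY mice (~20 g) infected intravenously with 50 to 100 LD50 (about 5 × 10^8 cells/mouse) of S. aureus No. 50774 in saline. Compounds in water or aqueous sodium carbonate (pH 8-9) dosed twice, about 5 minutes and 6 hours post-infection; ED50 (mg/kg) by Behrens-Kaerber method.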

A short description of a further series: Plasma level in mice. It counts as in vivo, male mice (ddY). As to the method:
The contents of the vials (No. A) obtained in Example 17 were dissolved in deionized water to form solutions of compound 1 in a concentration of 100 mg/ml. The solutions were intramuscularly (im) administered to twenty four male mice (ddY) having an average body weight of 26 g at a dose of 25 mg/kg.
Blood was taken by cardiac puncture from four mice ech 0.25, 0.5, 1, 2, 3 and 4 hours after administration, and centrifuged individually to separate the plasma.
Drug levels were determined by the thin-layer cup-plate method using Escherichia coli Kp as an indicator organism. Plasma was appropriately (to more than 10 times) diluted with a 0.067 M phosphate buffer having a pH of 7.0. A standard calibration line was prepared in the same buffer.

Series [3] has as its system bacteria (systemic infection). In words: In vivo efficacy against systemic infection, overall conclusions. Details: species or system male mice (ddY). The following applies: Table II. An outline of the steps: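 Mice given injections of compounds at various concentrations, dissolved in deionized water or in aqueous sodium carbonate (pH 8-9) depending on compound. Median effective dose (ED50) determined against systemic infection.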

Structures can show the parent of a compound that is named as a salt. Where two headings read alike, the source gives them in different places.

This note sets out measurements from patent publication US4103011A, “Novel penicillin compounds and process for preparation thereof” (priority 1976, dated 1978).

As for `CC1(C)S[C@@H]2[C@H](NC(=O)[C@H](NC(=O)c3c[nH]c4nc(N5CCN(C=O)CC5)ncc4c3=O)c3ccc(O)cc3)C(=O)N2[C@H]1C(=O)O` [Compound 1, D-α-[5,8-Dihydro-2-(4-formyl-1-piperazinyl)-5-oxopyrido[2,3-d]pyrimidine-6-carboxamido]-p-hydroxybenzyl-penicillin sodium salt], the ED50 was 4.1 mg/kg in series [1] (iv, twice, about 5 minutes and 6 hours after infection, read-out: ED50 (median effective dose)); 2 to 6 mg/kg in series [1] (parenteral administration, compounds 1 and 2 together, read-out: ED50); 2.1 mg/kg in series [1] (sc, twice, about 5 minutes and 6 hours after infection, read-out: ED50 (median effective dose)); 2.1 mg/kg in series [2]. The “antibacterial activity compared with compounds J and H (in words)” value in series [1] (parenteral administration) is “far superior antibacterial activity”. In addition, the “antibacterial activity relative to compounds B and C (times as high)” value in series [1] (parenteral administration) lay in the range of 3 to 25 times. In series [1] (parenteral administration), the “antibacterial activity relative to compounds D and E (times as high)” value was in the range of 6 to 20 times. In addition, the “plasma level (in words)” value in the series “Plasma level in mice” (after parenteral administration) is “much the same concentration as the MIC”. Further, the concentration at 0.25 h in “Plasma level in mice” (mouse, plasma, 25 mg/kg, im, single dose, 0.25 hour, read-out: Average plasma conc.) worked out at 27.4 µg/mL. Besides, the concentration at 0.5 h in “Plasma level in mice” (mouse, plasma, 25 mg/kg, im, single dose, 0.5 hour, read-out: Average plasma conc.) amounted to 21.5 µg/mL. The concentration at 1 h in “Plasma level in mice” (mouse, plasma, 25 mg/kg, im, single dose, 1 hour, read-out: Average plasma conc.) amounted to 15.6 µg/mL. For the same compound, in “Plasma level in mice” (mouse, plasma, 25 mg/kg, im, single dose, 2 hour, read-out: Average plasma conc.), the concentration at 2 h is 9.57 µg/mL. In addition, the concentration at 3 h in “Plasma level in mice” (mouse, plasma, 25 mg/kg, im, single dose, 3 hour, read-out: Average plasma conc.) was found to be 4.01 µg/mL. The concentration at 4 h in “Plasma level in mice” (mouse, plasma, 25 mg/kg, im, single dose, 4 hour, read-out: Average plasma conc.) came out at 2.74 µg/mL. For the same compound, in series [3], the “antibacterial activity in vivo (in words)” value is on record as “excellent antibacterial activity in vivo”.
